Results taken from PubChem BioAssay (NCI).
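Five compound concentrations were applied to cells in 96-well plates for 48 hours; endpoints were derived by simple linear interpolation of the resulting dose-response curve. GI50 is the concentration that inhibits growth by half. TGI denotes the concentration required for complete inhibition of growth.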

Legend:
Assay in all cases: NCI-60 cell line screen, 48 h
[1] = test system: TK-10 renal
[2] = test system: RPMI-8226 leukemia
[3] = test system: SNB-75 CNS
[4] = test system: DU-145 prostate
[5] = test system: MCF7 breast
[6] = test system: PC-3 prostate
[7] = test system: OVCAR-8 ovarian
[8] = test system: IGROV1 ovarian
[9] = test system: SN12C renal
[10] = test system: MDA-MB-231 breast

| SMILES | TGI [1] [µM] | TGI [2] [µM] | TGI [3] [µM] | TGI [4] [µM] | TGI [5] [µM] | TGI [6] [µM] | TGI [7] [µM] | TGI [8] [µM] | TGI [9] [µM] | TGI [10] [µM] | GI50 [1] [µM] | GI50 [2] [µM] | GI50 [3] [µM] | GI50 [4] [µM] | GI50 [5] [µM] | GI50 [6] [µM] | GI50 [7] [µM] | GI50 [8] [µM] | GI50 [9] [µM] | GI50 [10] [µM] |
| --- | --- | --- | --- | --- | --- | --- | --- | --- | --- | --- | --- | --- | --- | --- | --- | --- | --- | --- | --- | --- |
| CC(=O)NNC=N/C(C#N)=C(\N)C#N | > 100 | > 100 | > 100 | > 100 | > 100 | > 100 | > 100 | > 100 | > 100 | > 100 |  |  |  |  |  |  |  |  |  |  |
| COc1cc(/C=C2\CCCC3=C2NC(N)=NC3c2cc(OC)c(OC)c(OC)c2)cc(OC)c1OC (stereo unspecified) | 7.23 | 1.79 | > 100 | > 100 | > 100 | > 100 | 12.1 | > 100 | > 100 | > 100 | 3.24 | 0.291 | 8.02 | 3.36 | 1.49 | 1.93 | 0.298 | 3.35 | 1.62 | 3.87 |
| Fc1ccc(C(OCCN2CCC3CCC(C2)N3CCCc2ccccc2)c2ccc(F)cc2)cc1 (stereo unspecified) | 15.7 | 5.11 | 10.3 | 22.8 | 13 | 11.4 | 4.93 | 17.7 | 12.7 | 13.6 |  |  |  |  |  |  |  |  |  |  |
| C[N+](C)(C)CC1Cc2ccccc2C1=O (stereo unspecified) | > 10 | > 6.86 | > 10 | > 10 | 5.41 | > 10 | > 3.16 | > 10 | > 10 | > 10 |  |  |  |  |  |  |  |  |  |  |
| COC(=O)/C=C/c1cc(OC)c2c(c1)C(C(=O)OC)C(c1ccc(OC)c(OC)c1)O2 (stereo unspecified) | > 100 | > 100 | 5.61 | > 100 | > 100 | > 100 | > 100 | > 100 | > 100 | > 100 |  |  |  | > 100 |  |  |  |  |  |  |
| O=c1nc2n(CCO)c(-c3ccccc3)c(-c3ccccc3)nc-2c(=O)[nH]1 | > 100 | > 100 | > 100 | > 100 | > 100 | > 100 | > 100 | > 100 | > 100 | > 100 |  |  |  |  |  |  |  |  |  |  |
| N#Cc1cnn2c1n[n+]([O-])c1ccc(Cl)cc12 | > 100 | > 100 | 15.4 | 28.5 | > 100 | 32.1 | > 42.9 | 8.53 | 20.7 | 35.5 |  |  |  |  |  |  |  |  |  |  |
| COc1ccc(CSCc2cc(OC)c(OC)c(OC)c2)cc1 | > 100 | > 100 | > 100 | > 100 | > 100 | > 31.6 | > 31.6 | > 100 | > 100 | > 100 |  |  |  |  |  |  |  |  |  |  |
